Structures are written as SMILES. Where two headings read alike, the source gives them in different places.

The subject of data set [1] is PAM enzyme. As to the kind of experiment: amount of C-terminal α-amidated Pro of the expressed antibody (in vivo PAM activity), SF system. In kind it is cell-based, Chinese hamster. The protocol:
(§1) Experiments (using different illustrative glycoproteins) were performed in shake flask (SF) systems, where […] SFs with a final volume of 125 ml were used. All experiments started by thawing of a research working cell bank (rWCB), such as CHO cell line DP-12 (CHO DP-12 clone #1934 [CHO DP-12, clone #1934 aIL8.92 NB 28605/14] (ATCC® CRL-12445™) producing recombinant human anti-IL-8 or CHO-SSF cells expressing a monoclonal antibody directed to tumour necrosis factor, TNF (see PCT/EP2011/074181 for further details) followed by several subcultivations under standard conditions according to manufacture instructions until enough cells for the inoculation were available For all experiments, a 14 days generic fed batch fermentation was used and a generic feeding regime comprising feeding of glucose, glutamine and amino acids was performed. All SFs were incubated in a shaker incubator (Kuhner, Switzerland) at the following conditions: temperature of 36.5° C., CO2=10% and shaking speed 200 rpm.
(§2) At the end of 14 days of BR and SF bioprocesses (i.e., on day 14), harvests were sampled to 50 ml centrifuge tubes. […] Purification was done either using AKTA chromatography system with 1 ml HiTrap column (GE Healthcare, cat. no. 11-0034-93) or TECAN Freedom EVO pipetting station with 200 μl RoboColumns (Atoll, cat. no. 01050408R).
(§3) To measure the amount of C-terminal α-amidated Pro and the amount of C-terminal Lys, Cation Exchange Chromatography (CEX) was performed according to the laboratory procedure. Main charged variants were designated as 0K, pseudo 1K (1+) and pseudo 2K (2+). The positive charge refers to the Lys or α-amidated Pro at the C-terminus of the heavy chain. Charged variants (Lys, α-amidated Pro) were differentiated by CP cleavage of C-terminal Lys followed by the same CEX analysis. Structures eluting before the main three variants were designated as AP (acidic peaks) and those eluting after them as BP (basic peaks).
(§4) The experiment was performed in 500 ml SF with a final volume of 125 ml. After 14 days of fed batch bioprocess, harvests were collected, centrifuged, sterile filtered through a PES membrane and immediately subjected to a single step affinity chromatography (AC) purification and a subsequent analysis of C-terminal α-amidation by […]. Design Expert version 7.1.3 (Stat-Ease, Inc., Minneapolis, USA) was used to build the response surface design and to perform the statistical analysis of the experimental results. A MinRes IV design was used to determine the influence of the tested trace elements on cell productivity, C-terminal α-amidation and C-terminal carboxypeptidation of the investigated monoclonal antibody. Analyzed design expert (Stat-Ease, Inc., Minneapolis, USA) responses included end of fed-batch titer, amount of C-terminal α-amidated Pro and amount of C-terminal Lys.
(§5) The experiment was performed in 500 ml SF with a final volume of 125 ml. After 14 days of fed batch bioprocess, harvests were collected, centrifuged, sterile filtered through a PES membrane and immediately subjected to a single step AC purification and a subsequent analysis of C-terminal α-amidation by […].
(§6) After performing the above described analytical steps, the measured values were inserted into the DOE program and analyzed. The α-value of statistical significance was set to 0.100, which means that factors with a P-value higher than 0.100 were excluded from the statistical mode since they were non-significant.

The test system of data set [2] is CHO cells expressing a monoclonal antibody. As to the kind of experiment: end of fed-batch titer in shake flask (SF) fed batch culture. In kind it is cell-based, Chinese hamster. The protocol:
as §1, §4
Effects that were above the Bonferroni limit were certainly significant and effects that were above the t-Value limit were possibly significant. Effects that were below the t-Value limit were not selected as they were not significant. After selecting significant effects, the ANOVA statistical program was employed to confirm that only statistically significant effects were included in the model.
as §5, §6

In data set [3] the test system is PAM enzyme. As to the kind of experiment: amount of C-terminal α-amidated Pro (in vivo PAM activity), BR system. It is filed as cell-based, Chinese hamster. To be noted: 5 L BR. Here is the method: as §2, §3
(§7) All experiments were performed in 5 L BRs.

The test system of data set [4] is CHO cells. Briefly: cell viability in SF culture (trypan blue exclusion). It is filed as cell-based, Chinese hamster. To be noted: experiment 2, SF; selenium 3 μM (data not shown). The protocol: Experiments (using different illustrative glycoproteins) were performed in shake flask (SF) systems, where […] SFs with a final volume of 125 ml were used.
as §5

In data set [5] the test system is CHO cells expressing a monoclonal antibody. As to the kind of experiment: titer in 5 L bioreactor (BR) fed batch culture. In kind it is cell-based, Chinese hamster. The settings on record: 5 L BR. Here is the method:
as §7

Data set [6] deals with CP enzyme. As to the kind of experiment: amount of C-terminal Lys (in vivo CP activity), BR system. It is filed as cell-based, Chinese hamster. To be noted: 5 L BR. Here is the method:
as §2, §3, §7
To test the effect of zinc on the CP activity, three different zinc chloride concentrations were tested, namely 3.7 μM, 11 μM and 22 μM. […] In regard to productivity, a constant drop of productivity was measured with the decrease of the zinc concentration.

In data set [7] the test system is CP enzyme. Briefly: amount of C-terminal Lys of the expressed antibody (in vivo CP activity), SF system. In kind it is cell-based, Chinese hamster. The protocol: as §1, §2, §3, §4, §5, §6
The test system of data set [8] is CHO cells. The settings on record: 5 L BR.
Protocol: All results were finally confirmed in a bioreactor (BR) system, where 5 L glass bioreactors were used.
In both the SF and BR system, the cell growth and cell viability were measured with the Vi-Cell XR analyzer (Beckman Coulter) using the trypan blue exclusion method for cell viability determination and automated cell counting for determination of the cell concentration. The monoclonal antibody content was determined by affinity liquid chromatography (ALC). A calibration curve was made by diluting the generic reference. […] The results were expressed in gram (g) of protein per liter (L) of harvest.
The obtained SF results were finally also tested in a bioreactor (BR) environment. All experiments were performed in 5 L BRs.

Regarding `[Cl][Cu][Cl]` [copper, copper chloride], the “increase of amount of C-terminal α-amidated Pro” value in data set [1] (experiment 1, SF, 10-fold increased copper (FIG. 4)) is given as 2.5%. The “amount of C-terminal α-amidated Pro” value amounted to 2.1% in data set [1] (experiment 2, DOE model, copper 0.06 μM) and 2.2% in data set [1] (experiment 2, DOE model, copper 0.18 μM).
As to `O=[Se]([O-])[O-].[Na+].[Na+]` [selenium, sodium selenite], the “amount of C-terminal α-amidated Pro” value is 4.5% in data set [1] (experiment 1, SF, 10-fold increased selenium (FIG. 4)); 6.5% in data set [1] (experiment 1, SF, before 10-fold increase of selenium (FIG. 4)); 2.2% in data set [1] (experiment 2, selenium 0.17 μM (FIG. 8)); 1.26% in data set [1] (experiment 2, selenium 3.00 μM (FIG. 8)). Also, the titer in data set [2] (experiment 1, SF, selenium 0.017 μM) was found to be 0.4 g/L. Also, the effect on titer entry in data set [2] (experiment 2, SF, selenium above 3 μM (FIG. 7)) is given as “titer decrease”. Also, the “C-terminal α-amidated Pro” value in data set [3] (0.17 μM selenium (FIG. 12)) amounted to 9.3%; in data set [3] (2.31 μM selenium (FIG. 12)) it was 2.25%. In addition, the viability result in data set [4] was “below 80%”. In data set [5] (2.31 μM versus 0.17 μM selenium (FIG. 11B)), the titer decrease is reported as 1 g/L.
With `[Cl-].[Cl-].[Zn+2]` [zinc, zinc chloride], the “C-terminal Lys” value in data set [6] (3.7 μM zinc (FIG. 14)) is 6%; in data set [6] (22 μM zinc (FIG. 14)), 3.15%. The “amount of C-terminal Lys” value was 15.97%±0.79% in data set [7] (confirmation, SF, three parallels, 2.3 μM zinc (FIG. 10B)); 1.99%±0.08% in data set [7] (confirmation, SF, three parallels, unchanged in-house medium, 22 μM zinc (FIG. 10B)); 8.5% in data set [7] (experiment 1, SF, 10-fold increased zinc (FIG. 6)); 22% in data set [7] (experiment 1, SF, before 10-fold increase of zinc (FIG. 6)); 15% in data set [7] (experiment 2, DOE model, zinc 0.15 μM (FIG. 9)); 5% in data set [7] (experiment 2, DOE model, zinc 5.00 μM (FIG. 9)). For the same molecule, the titer was 0.4 g/L in data set [2] (experiment 1 (MinRes IV), SF, 14 days fed batch, zinc 2.201 μM); 0.6 g/L in data set [2] (experiment 1, SF, zinc 22.012 μM); 0.4 g/L in data set [2] (experiment 2 (central composite design), DOE model, zinc 7 μM (FIG. 7)); “above 0.6 g/L” in data set [2] (experiment 2, DOE model, zinc 12 μM (FIG. 7)). Further, the cell culture growth entry in data set [8] (3.7 μM zinc (FIG. 13A)) was “significantly lower growth”; in data set [8] (11 μM compared with 22 μM zinc (FIG. 13A)), “well comparable”. Besides, the final titer in data set [5] (highest zinc concentration, 22 μM (FIG. 13B)) was 3.86 g/L; in data set [5] (lowest zinc concentration, 3.7 μM (FIG. 13B)) it was 1.86 g/L; in data set [5] (zinc 11 μM (FIG. 13B)), 2.90 g/L.

The record behind these values is patent publication US10196601B2, “Cell culture medium and process for controlling α-amidation and/or C-terminal amino acid cleavage of polypeptides” (LEK PHARMACEUTICALS D.D., priority 2013, dated 2019).
